Source: patent US20240285808A1, “MOLECULAR PROBES FOR IN VIVO DETECTION OF ALDEHYDES” (The General Hospital Corporation, priority 2021, published 2024)
“And” between values parts separate entries of the source, which are not always exact repeats. Identical values can stand only once.

Legend:
[1] = target: bovine serum albumin (BSA) (Bos taurus, UniProt P02769); test: Relaxivity measurements with BSA; type: binding; settings: 1.4 T, 37° C., BSA 10 mg/mL
[2] = Relaxivity measurements in PBS; type: physicochemical; settings: 1.4 T, 37° C.
[3] = test system: liver of CCl4 injured mice; type: in vivo, mouse; settings: for ΔCNR (liver to muscle): 100 μmol/kg i.v., group mean; for ΔCNR of liver, pair-wise comparison: individual mice ID 1-6
Method: CCl4 Liver Fibrosis Model:
Male C57BL/6 mice (Charles River Laboratories, Wilmington, MA) were treated with carbon tetrachloride for 12 weeks (0.1 ml of 20% CCl4 in olive oil the first week, 30% the second week, and 40% from weeks 3-12) by oral gavage, 2-3 times per week. Control mice were fed vehicle (olive oil) only.
A total of 53 C57BL/6 mice were included to study CCl4 induced hepatic fibrosis: • A. CCl4 for 12 weeks (n=20). Each mouse was imaged with probe 1 and then imaged again 24 hours later with probe 2. Probe 1 and Probe 2 were randomly chosen from GdDOTA, GdCHyd, Mn-12, Gd-9 and Gd-10. • B. Vehicle treated control (n=20). Each mouse was imaged with probe 1 and then imaged again 24 hours later with probe 2. Probe 1 and Probe 2 were randomly chosen from GdDOTA, Mn-12, GdCHyd, Gd-9, Gd-10. • C. CCl4 for 12 weeks (n=3, another 3 pair-wise comparison have been done in group A). Each mouse was imaged with probe 1 and then imaged again 24 hours later with probe 2. […] Each mouse was imaged with probe 1 and then imaged again 24 hours later with probe 2. Probe 1 and Probe 2 were randomly choosing from Gd-9 and Gd-10. • E. CCl4 for 12 weeks (n=3). Each mouse was imaged with Gd-9. After 24 hours, the same mouse was first injected with 1000 μmol/kg of Yb-9 and then injected with 100 μmol/kg of Gd-9 15 min after the Yb-9 injection.
Animals were anesthetized with isoflurane (1-2%) and placed in a specially designed cradle with body temperature maintained at 37° C. The inhaled isoflurane level was adjusted to maintain a respiration rate of 60±5 breaths per minute. The tail vein was cannulated for intravenous (i.v.) delivery of the contrast agent while the animal was positioned in the scanner. Imaging was performed at 4.7 T using a small bore animal scanner with a custom-built volume coil. Mice were imaged with a dose of 100 μmol/kg from 30 mM stock solution of Gd or Mn complex.
For mice liver imaging, a series of baseline images (3D T1 weighted fast low angle shot magnetic resonance imaging (FLASH)) were first acquired (repetition time/echo time=15/2 ms; flip angle, 30°; field of view, 48×30 mm^2; matrix size, […]; slice thickness, 0.25 mm; acquisition time, 3 minutes 20 seconds), then a bolus of Gd or Mn complex was administered i.v. and imaging performed for a period of 45 min p.i. with the repetition acquisition of 3D T1 weighted FLASH sequences. Following the imaging session, animals were sacrificed (75 min p.i.) and liver tissue was subjected to histopathologic analysis.
For liver imaging analysis, a region of interest (ROI) was manually traced encompassing the liver parenchyma while avoiding major blood vessels. A second ROI was placed on the dorsal muscle visible in the same image slice to quantify the signal intensity in the muscle for comparison. Seven ROIs were placed in the field of view without any tissue (air) to measure the variation in background signal. More than 20 axial slices per mouse across the entire liver were analyzed in this fashion. […] Contrast to noise ratio (CNR) was calculated by measuring the difference in signal intensity (SI) between liver and muscle and normalizing to the standard deviation of the signal in the air, eq 21. ΔCNR was calculated by subtracting CNR measured prior to probe injection (CNRPre) from CNR measured after injection (CNRPost), eq 22. […]

[4] = target: T1, BSA-ALD (oxidized bovine serum albumin containing allysine aldehyde groups) (Bos taurus, UniProt P02769); test: Relaxivity measurements with BSA-Ald; type: binding; settings: for r1, +BSA-Ald / r1, Bound to BSA-Ald: 1.4 T; for r1, +BSA-Ald / r1, Bound to BSA-Ald / increase of r1 in BSA^Ald compared to PBS value: 37° C.; for r1, +BSA-Ald: BSA-Ald 10 mg/mL; for r1, Bound to BSA-Ald: protein-bound species after NaBH3CN and ultrafiltration; for increase of r1 in BSA^Ald compared to PBS value: 1.41 T
T1 construct: made in house; host or cells: no expression host: BSA oxidised chemically with sodium ascorbate, ferric chloride and H2O2, then desalted on PD-10
T1 sequence (P02769 25-607): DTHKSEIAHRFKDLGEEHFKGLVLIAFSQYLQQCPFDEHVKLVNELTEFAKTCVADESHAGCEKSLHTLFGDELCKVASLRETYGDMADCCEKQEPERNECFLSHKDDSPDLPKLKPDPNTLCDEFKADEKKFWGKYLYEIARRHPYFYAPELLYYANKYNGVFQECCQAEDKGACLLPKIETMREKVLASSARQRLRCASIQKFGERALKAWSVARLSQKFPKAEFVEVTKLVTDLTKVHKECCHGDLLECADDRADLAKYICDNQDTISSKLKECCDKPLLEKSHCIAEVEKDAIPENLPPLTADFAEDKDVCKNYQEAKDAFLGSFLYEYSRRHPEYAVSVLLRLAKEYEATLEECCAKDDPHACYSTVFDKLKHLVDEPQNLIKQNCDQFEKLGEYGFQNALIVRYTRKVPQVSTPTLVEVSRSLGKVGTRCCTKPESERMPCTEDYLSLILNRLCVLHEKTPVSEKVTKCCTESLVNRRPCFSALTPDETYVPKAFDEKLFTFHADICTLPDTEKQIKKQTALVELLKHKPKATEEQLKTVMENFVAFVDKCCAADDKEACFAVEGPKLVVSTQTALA

[5] = CCl4 injured mice, 45 min post injection

bovine serum albumin (BSA), sequence (P02769 25-607): as above

## NN1CCN(C(=O)CCC(C(=O)[O-])N2CCN(CC(=O)[O-])CCN(CC(=O)[O-])CCN(C(CCC(=O)N3CCN(N)CC3)C(=O)[O-])CC2)CC1.[Gd+3] (stereo not drawn) [Gd-9, cis-1,4-Gd-(CHyd)2]
[1]
  r1, +BSA: 6.6 mM⁻¹ s⁻¹ and 6.5 mM⁻¹ s⁻¹
[2]
  r1, PBS: 6.6 mM⁻¹ s⁻¹
[3]; CCl4 injured mice, 45 min p.i.
  fold higher ΔCNR compared to Gd-CHyd (monobinder): 10 fold
[3]; [5]
  ΔCNR (liver to muscle): 2.2±0.8 and 2.2 ± 0.9
  ΔCNR of liver, pair-wise comparison: 1.9 (2×) and 3.2 and 1.3 and 2.1 and 1.5
[3]; CCl4 injured mice, 45 min post injection, blocking dose of Yb-9 (1000 μmol/kg) 15 min before, individual mice ID 1-3
  ΔCNR of liver, With blocking: 0.1 (2×) and 0.3
[3]; CCl4 injured mice, 45 min post injection, individual mice ID 1-3
  ΔCNR of liver, Without blocking: 3.6 and 2.7 and 3.0
[4]
  fold higher relaxivity than Gd-CHyd: 2.3 fold
  higher protein-bound relaxivity than monobinder Gd-CHyd: 50%
  r1, +BSA-Ald: 11.7 mM⁻¹ s⁻¹ and 11.2 mM⁻¹ s⁻¹
  r1, Bound to BSA-Ald: 17.7 mM⁻¹ s⁻¹
  increase of r1 in BSA^Ald compared to PBS value: 77%

## NN1CCN(C(=O)CCC(C(=O)[O-])N2CCN(CC(=O)[O-])CCN(C(CCC(=O)N3CCN(N)CC3)C(=O)[O-])CCN(CC(=O)[O-])CC2)CC1.[Gd+3] (stereo not drawn) [Gd-10, trans-1,7-Gd-(CHyd)2]
[1]
  r1, +BSA: 6.6 mM⁻¹ s⁻¹
[2]
  r1, PBS: 6.6 mM⁻¹ s⁻¹
[3]; [5]
  ΔCNR (liver to muscle): 1.3±0.4 and 1.5 ± 0.9
  ΔCNR of liver, pair-wise comparison: 1.3 and 2.3 and 1.2 and 0.9 and 1.4 and 1.0
[4]
  r1, +BSA-Ald: 9.0 mM⁻¹ s⁻¹
  r1, Bound to BSA-Ald: 18.7 mM⁻¹ s⁻¹
  increase of r1 in BSA^Ald compared to PBS value: 36%

## NNC(CCC(=O)NCCCN1CCN(CC(=O)[O-])Cc2cccc(n2)CN(CC(=O)[O-])CC1)C(=O)O.[Mn+2] (stereo not drawn) [Mn-15]
[1]
  r1, +BSA: 3.6 mM⁻¹ s⁻¹
[2]
  r1, PBS: 3.1 mM⁻¹ s⁻¹
[3]; 20 minutes post injection
  fold higher DCNR in CCl4 treated vs vehicle treated mice: 3 fold
[3]; [5]
  ΔCNR (liver to muscle): 1.2 ± 0.2
[4]
  turn-on in relaxivity upon binding to allysine (BSA-Ald bound vs unbound): 4 fold and ~3 fold
  r1, +BSA-Ald: 5.9 mM⁻¹ s⁻¹
  r1, Bound to BSA-Ald: 12.7 mM⁻¹ s⁻¹
  increase of r1 in BSA^Ald compared to PBS value: 90%
[4]; 1.4T
  turn on in relaxivity: 270%

## NOC(CCC(=O)NCCCN1CCN(CC(=O)[O-])Cc2cccc(n2)CN(CC(=O)[O-])CC1)C(=O)O.[Mn+2] (stereo not drawn) [Mn-16]
[1]
  r1, +BSA: 3.4 mM⁻¹ s⁻¹
[2]
  r1, PBS: 3.1 mM⁻¹ s⁻¹
[4]
  turn-on in relaxivity upon binding to allysine (BSA-Ald bound vs unbound): 4 fold
  r1, +BSA-Ald: 7.7 mM⁻¹ s⁻¹
  r1, Bound to BSA-Ald: 12.7 mM⁻¹ s⁻¹

## NNCC(=O)NCCCN1CCN(CC(=O)[O-])Cc2cccc(n2)CN(CC(=O)[O-])CC1.[Mn+2] [Mn-17]
[1]
  r1, +BSA: 3.5 mM⁻¹ s⁻¹
[2]
  r1, PBS: 3.0 mM⁻¹ s⁻¹
[4]
  turn-on in relaxivity upon binding to allysine (BSA-Ald bound vs unbound): 4 fold and ~3 fold
  r1, +BSA-Ald: 5.6 mM⁻¹ s⁻¹
  r1, Bound to BSA-Ald: 11.4 mM⁻¹ s⁻¹
  increase of r1 in BSA^Ald compared to PBS value: 90%

## CN(C)C(CCC(=O)NCCCN1CCN(CC(=O)[O-])Cc2cccc(n2)CN(CC(=O)[O-])CC1)C(=O)O.[Mn+2] (stereo not drawn) [Mn-18]
[1]
  r1, +BSA: 3.5 mM⁻¹ s⁻¹
[2]
  r1, PBS: 3.1 mM⁻¹ s⁻¹
[4]
  r1, +BSA-Ald: 3.6 mM⁻¹ s⁻¹
